In one data set the test system is T. b. brucei. Description: In vitro antitrypanosomal activity against T. brucei (growth inhibition). The data set is classed as cell-based, Trypanosoma brucei. The procedure:
Primary hits from the screen were further characterized using a dose-response assay format to determine the EC50. In parallel, the cytotoxicities of these compounds were determined against a proliferating human hepatoma cell line (Huh7). […] SI—CC50/EC50). The final set of confirmed T. brucei hits consisted of 1035 inhibitors. […] In vitro antitrypanosomal activities against T. b. rhodesiense (STIB9000) and cytotoxicities against L6 rat myoblast cells were measured following established protocols (Orhan et al., Mar. Drugs 8:47 (2010). […] All wells including negative controls contained a final of 0.4% DMSO. After incubation of the plates at 37° C. for 48 h, the parasite density was determined using the CellTiter-Glo reagent (Promega), a firefly luciferase assay system that measures the amount of cellular ATP present in plate wells.

In a further data set the test system is Trypanosoma cruzi. Nature of the data set: Efficacy against T. cruzi in vitro. The format is cell-based. Particulars: Trypanosoma cruzi; Table 16; read-out: T. Cruzi EC50.
The nature of data set [1]: Distribution between mouse plasma and brain (brain penetration, ip). The data set is classed as in vivo. The method, then: For distribution of compounds between mouse plasma and brain, mice (in groups of 3) were injected with test compounds (5 mg/kg ip) and sacrificed at the indicated times for collection of plasma and brain. Compound was dissolved in 0.4 mL of dosing solution (7% Tween 80, 3% ethanol, 5% DMSO, 0.9% saline) for ip injections. The brains were weighed and immediately frozen, then later homogenized in acetonitrile using a Dounce homogenizer. Prior to animal studies, recovery of test compound was carried out by adding a known amount to a mouse brain in the test extraction solvent and performing the homogenization. Compound recovery was determined by liquid chromatography/tandem mass spectrometry analysis relative to a standard compound amount. Blood was taken from the same mice in heparinized capillary tubes (Fisherbrand) for determination of compound concentration in plasma. The concentration of compound in the brain was obtained by dividing the moles of compound in the brain by the brain volume (obtained from the brain weight assuming 1 g is 1 mL) and correcting for the brain vasculature volume of 2.5% by weight.
Brain penetration studies (Table 14) were initially performed upon compounds 1, 2, and 3, but were expanded to include other compounds in order to explore the SAR of brain penetration. Groups of three mice were given single 5 mg/kg ip doses of the test compounds and were sacrificed 1 h post-dose.

Setting [2] is: Trypanosoma brucei, Table 17, read-out: T. b. brucei EC50.
[3] abbreviates: Trypanosoma brucei, Table 17, read-out: T. b. brucei EC90.
Where [4] appears, read: Trypanosoma brucei, Table 16, read-out: T. b. brucei EC50.
The mark [5] stands for this setting: Trypanosoma brucei, Table 9, read-out: T. brucei EC50.
The mark [6] stands for this setting: Trypanosoma brucei, Table 9, read-out: T. brucei EC90.
Where [7] appears, read: Table 14, mice, single ip dose 5 mg/kg, one hour post-dose, ± SEM of 3 mice (compound 3: 6 mice).

Counter-ions that a name gives are not always drawn. Like-named read-outs stand apart in the source and are kept apart here.

Take `O=C(Nc1ccc2sc(-c3ccc(F)c(F)c3)nc2c1)c1cncs1` [Compound 61]: the EC50 in the data set with T. b. brucei (setting [2]) turned out to be 3830 nM. Moreover, the EC90 in the data set with T. b. brucei (setting [3]) was determined as 7370 nM.

As to `O=C(Nc1ccn2cc(-c3cccc(F)c3F)nc2c1)N1CCCCC1` [Compound 46, N-[2-(2,3-difluorophenyl)imidazo[1,2-a]pyridin-7-yl]piperidine-1-carboxamide], the values for the EC50 in the data set on Trypanosoma cruzi and with T. b. brucei (setting [4]) were 1000 nM and 720 nM, respectively.

As for `O=C(Nc1ccn2cc(-c3cccc(F)c3)nc2c1)N1CCCC1` [Compound 48, N-[2-(3-fluorophenyl)imidazo[1,2-a]pyridin-7-yl]pyrrolidine-1-carboxamide], the EC50 in the data set on Trypanosoma cruzi worked out at 2950 nM; in the data set with T. b. brucei (setting [4]) it was 730 nM.

For `O=C(Nc1ccn2cc(-c3ccc(F)c(F)c3)nc2c1)N1CCCCC1` [Compound 43, N-[2-(3,4-difluorophenyl)imidazo[1,2-a]pyridin-7-yl]piperidine-1-carboxamide], the figures for the half-maximal effective concentration (EC50) in the data set with Trypanosoma cruzi and in the data set with T. b. brucei (setting [4]) were 2840 nM and 1200 nM, respectively.

As to `O=C(Nc1ccc2sc(-c3ccccc3)nc2c1)c1ccsc1` [Compound 19, 2-Phenyl-5-(3-thienylamido)benzothiazole], in the data set on T. b. brucei (setting [5]), the half-maximal effective concentration (EC50) was 1570 nM. Moreover, the 90% effect concentration (EC90) in the data set with T. b. brucei (setting [6]) was determined as 2490 nM.

For the compound `Cc1nc(C)c(C(=O)Nc2ccc3sc(-c4ccc(F)c(F)c4)nc3c2)s1` [Compound 62], the EC50 with T. b. brucei (setting [2]) was more than 20000 nM. Besides, the EC90 with T. b. brucei (setting [3]) is more than 20000 nM.

For the compound `O=C(Nc1cnc2sc(-c3ccc(F)c(F)c3)nc2c1)N1CC[C@H](F)C1` [Compound 56, (S)-2-(3,4-Difluorophenyl)-5-(3-fluoro-N-pyrrolidylamido)-7-azabenzothiazole], the 50% effective concentration (EC50) in the data set on T. b. brucei (setting [2]) was 181 nM. Besides, the 90% effect concentration (EC90) in the data set with T. b. brucei (setting [3]) worked out at 364 nM.

`O=C(Nc1ccc2sc(-c3cccc(F)c3)nc2c1)N1CCN(C(=O)Nc2ccc3sc(-c4cccc(F)c4)nc3c2)CC1` [Compound 31, N^1,N^4-Bis(2-(3-fluorophenyl)benzothiazol-5-yl)piperazine-1,4-dicarboxamide]: the EC50 with T. b. brucei (setting [5]) is more than 20000 nM. The 90% effect concentration (EC90) with T. b. brucei (setting [6]) is more than 20000 nM.

`O=C(Nc1ccc2sc(-c3ccc(F)c(F)c3)nc2c1Br)N1CC[C@H](F)C1` [Compound 55]: the EC50 in the data set with T. b. brucei (setting [2]) was more than 20000 nM. The EC90 in the data set with T. b. brucei (setting [3]) was more than 20000 nM.

Take `O=C(Nc1ccc2sc(-c3ccc(F)c(F)c3)nc2c1)c1cnco1` [Compound 58, N-(2-(3,4-Difluorophenyl)benzo[d]thiazol-5-yl)oxazole-5-carboxamide]: the EC50 in the data set on T. b. brucei (setting [2]) is more than 20000 nM. In addition, the EC90 in the data set on T. b. brucei (setting [3]) was more than 20000 nM.

For the compound `O=C(Nc1ccn2cc(-c3cccc(F)c3F)nc2c1)N1CCCC1` [Compound 45, N-[2-(2,3-difluorophenyl)imidazo[1,2-a]pyridin-7-yl]pyrrolidine-1-carboxamide], the concentration for a half-maximal effect (EC50) came to 1020 nM in the data set on Trypanosoma cruzi and 580 nM in the data set with T. b. brucei (setting [4]).

Take `O=C(Nc1ccc2sc(-c3ccccc3)nc2c1)c1nccs1` [Compound 20, N-(2-Phenylbenzo[d]thiazol-5-yl)thiazole-2-carboxamide]: the concentration for a half-maximal effect (EC50) with T. b. brucei (setting [5]) was 5860 nM. Moreover, in the data set on T. b. brucei (setting [6]), the EC90 is more than 10000 nM.

As to `O=C(Nc1ccn2cc(-c3ccc(F)c(F)c3)nc2c1)N1CCCC1` [Compound 42, N-[2-(3,4-difluorophenyl)imidazo[1,2-a]pyridin-7-yl]pyrrolidine-1-carboxamide], the EC50 in the data set with Trypanosoma cruzi stood at 2240 nM; with T. b. brucei (setting [4]), 320 nM.

Consider `O=C(Nc1ccn2cc(-c3ccc(F)c(F)c3)nc2n1)N1CC[C@H](F)C1` [Compound 54, (3S)-N-[2-(3,4-difluorophenyl)imidazo[1,2-a]pyrimidin-7-yl]-3-fluoropyrrolidine-1-carboxamide], for which the values for the 50% effective concentration (EC50) with Trypanosoma cruzi and in the data set on T. b. brucei (setting [4]) were 2530 nM and more than 20000 nM, respectively.

As to `O=C(Nc1ccn2cc(-c3cccc(F)c3F)nc2c1)N1CC[C@H](F)C1` [Compound 44, (3S)-N-[2-(2,3-difluorophenyl)imidazo[1,2-a]pyridin-7-yl]-3-fluoropyrrolidine-1-carboxamide], the half-maximal effective concentration (EC50) in the data set with Trypanosoma cruzi is 940 nM; in the data set with T. b. brucei (setting [4]), 180 nM.

For the compound `O=C(Nc1ccc2sc(-c3ccccc3)nc2c1)c1cscn1` [Compound 21, N-(2-Phenylbenzo[d]thiazol-5-yl)thiazole-4-carboxamide], the EC50 in the data set on T. b. brucei (setting [5]) is more than 10000 nM. For the same compound, in the data set on T. b. brucei (setting [6]), the EC90 was more than 10000 nM.

Regarding `O=C(Nc1ccn2cc(-c3ccccc3)nc2c1)N1CCCCC1` [Compound 52, N-{2-phenylimidazo[1,2-a]pyridin-7-yl}piperidine-1-carboxamide], the EC50 was found to be 2750 nM with Trypanosoma cruzi and 2510 nM in the data set on T. b. brucei (setting [4]).

For `O=C(Nc1ccn2cc(-c3ccccc3)nc2c1)N1CCCC1` [Compound 51, N-{2-phenylimidazo[1,2-a]pyridin-7-yl}pyrrolidine-1-carboxamide], the EC50 with Trypanosoma cruzi came to 4460 nM; with T. b. brucei (setting [4]), 2230 nM.

For the compound “N-(2-(3,4-Difluorophenyl)benzo[d]thiazol-5-yl)oxazole-4-carboxamide [Compound 57]”, the EC50 with T. b. brucei (Table 17, read-out: T. b. brucei EC50) was more than 20000 nM. Further, the EC90 with T. b. brucei (Table 17, read-out: T. b. brucei EC90) is more than 20000 nM.

`O=C(Nc1ccc2oc(-c3ccccc3)nc2c1)N1CCCC1` [Compound 8, 2-Phenyl-5-N-pyrrolidylamidobenzoxazole]: the concentration giving a half-maximal response (EC50) in the data set on T. b. brucei (Trypanosoma brucei, Table 7, read-out: T. brucei EC50) turned out to be 5250 nM; with T. b. brucei (setting [5]), 5250 nM. In addition, the EC90 in the data set on T. b. brucei (setting [6]) is more than 10000 nM. Moreover, the Brain/plasma ratio in data set [1] (Table 14, mice, single ip dose 5 mg/kg, one hour post-dose) came out at 1.58 ± 0.484. For the same compound, in data set [1] (setting [7]), the “[compound]Brain” value was found to be 0.397 ± 0.077 µM. Also, in data set [1] (setting [7]), the “[compound]Plasma” value is 0.270 ± 0.036 µM. In data set [1] (mouse, brain and plasma, intraperitoneal, 5 mg/kg, Table 7, groups of 3 mice, read-out: Average brain/plasma ratio), the Kp at 1 h stood at 1.58 ± 0.839. For the same compound, the concentration at 1 h in data set [1] (mouse, brain, intraperitoneal, 5 mg/kg, Table 7, groups of 3 mice, read-out: Average [compound] brain) is 397 ± 130 nM; in data set [1] (mouse, plasma, intraperitoneal, 5 mg/kg, Table 7, groups of 3 mice, read-out: Average [compound] plasma), 270 ± 62 nM.

For the compound `O=C(Nc1ccn2cc(-c3ccccc3)nc2c1)N1CC[C@H](F)C1` [Compound 50, (3S)-3-fluoro-N-{2-phenylimidazo[1,2-a]pyridin-7-yl}pyrrolidine-1-carboxamide], the EC50 came out at 1080 nM in the data set on Trypanosoma cruzi and 620 nM in the data set with T. b. brucei (setting [4]).

On to `O=C(Nc1ccn2cc(-c3cccc(F)c3)nc2c1)N1CC[C@H](F)C1` [Compound 47, (3S)-3-fluoro-N-[2-(3-fluorophenyl)imidazo[1,2-a]pyridin-7-yl]pyrrolidine-1-carboxamide], for which the concentration for a half-maximal effect (EC50) with Trypanosoma cruzi is 710 nM; in the data set with T. b. brucei (setting [4]), 160 nM.

On to `O=C(Nc1ccc2[nH]c(-c3ccccc3)nc2c1)c1ccccc1` [Compound 14, 5-Benzamido-2-phenylbenzimidazole hydrochloride], for which, in the data set on T. b. brucei (Trypanosoma brucei, read-out: T. brucei EC50), the half-maximal effective concentration (EC50) is more than 10000 nM. The 90% effect concentration (EC90) with T. b. brucei (Trypanosoma brucei, read-out: T. brucei EC90) is more than 10000 nM.

Turning to `Cc1nc(C(=O)Nc2ccc3sc(-c4ccc(F)c(F)c4)nc3c2)c(C)o1` [Compound 60], the EC50 in the data set on T. b. brucei (setting [2]) was more than 20000 nM. Besides, the 90% effect concentration (EC90) in the data set on T. b. brucei (setting [3]) is more than 20000 nM.

Consider `O=C(Nc1ccn2cc(-c3cccc(F)c3)nc2c1)N1CCCCC1` [Compound 49, N-[2-(3-fluorophenyl)imidazo[1,2-a]pyridin-7-yl]piperidine-1-carboxamide], for which the values for the concentration giving a half-maximal response (EC50) with Trypanosoma cruzi and with T. b. brucei (setting [4]) were 3100 nM and 970 nM, respectively.

Regarding `O=C(Nc1cc2nc(-c3ccc(F)c(F)c3)cn2cn1)N1CC[C@H](F)C1` [Compound 53, (3S)-N-[2-(3,4-difluorophenyl)imidazo[1,2-c]pyrimidin-7-yl]-3-fluoropyrrolidine-1-carboxamide], the half-maximal effective concentration (EC50) with Trypanosoma cruzi is 90 nM; with T. b. brucei (setting [4]), 20 nM.

Turning to `NC1CCN(C(=O)Nc2ccc3sc(-c4ccc(F)c(F)c4)nc3c2)C1` (stereo not shown) [Compound 37, 2-(3,4-Difluorophenyl)-5-(3-amino-N-pyrrolidylamido)benzothiazole], the concentration giving a half-maximal response (EC50) with T. b. brucei (setting [5]) was determined as 2320 nM. Also, the 90% effect concentration (EC90) in the data set with T. b. brucei (setting [6]) came to 2720 nM.

As usually defined, the EC50 is the concentration that produces a half-maximal response. What is called EC90 is the concentration needed for an effect of 90%.

Source of the values: patent US10399966B2, “Compounds for treatment of trypanosomes and neurological pathogens and uses thereof” (The University of North Carolina at Chapel Hill, priority 2016, dated 2019).
